# Columns and labels:
# [1] = system: rat motoneurons; test: in vitro model of trophic deprivation of rat motoneurons (survival, calcein fluorescence); assay type: cell-based; conditions: 3 days in basal medium, compared with medium supplemented with neurotrophic factors, ratio greater than 0 = positive effect
# Excerpt: Useful reference may be made to the WO 0142784 Patent Application of the applicant on the cultivation of spinal cord motoneurons.
# The spinal cord of rat E14 embryos is dissected and the ventral portion is dissociated by trituration after trypsination. The motoneurons are separated from the other spinal cells by a known method (Camu et al., 1993, Purification of spinal motoneurons from chicken and rat embryos by immunopanning. in “Immunoselection Strategies for Neural cell culture”, Neuroprotocols: A companion to Methods in Neurosciences 2, 191-199; Henderson et al., 1993. Neutrophins promote motor neuron survival and are present in embryonic limb bud. Nature 363 (6426): 266-70). The cells are centrifuged on a density gradient. Motoneurons are enriched in the fraction of large cells (the less dense cells). The cells of this fraction are incubated with an anti-p75 antibody, a surface antigen present on motoneurons. Secondary antibodies coupled with magnetic beads are added and the mixture of cells is passed through a column in a magnet (Arce et al., 1999). Only the motoneurons are retained: their purity is of the order of 90%.
# The motoneurons are sown with low density in culture wells on a substrate of polyornithine-laminin in a neurobasal medium supplemented according to Raoul et al., 1999, Programmed cell death of embryonic motoneurons triggered through the Fas death receptor. J. Cell. Biol. 147(5): 1049-62. Negative controls (absence of trophic factors) and positive controls (in the presence of BDNF (Brain-Derived Neurotrophic Factor) at 1 ng/mL, GDNF (Glial-Derived Neurotrophic Factor) at 1 ng/mL, and CNTF (Ciliary Neurotrophic Factor) at 10 ng/mL, marketed by the US company PEPROTECH, Inc. and the Sigma-Aldrich company), are included in each series.
# The compounds to be tested are added 60 minutes after sowing and the cultures are maintained at 37° C. under 5% CO2 for 3 days.
# The motoneurons have a spontaneous tendency of dying in the absence of neurotrophic factors (Pettmann and Henderson, 1998, Neuronal cell death. Neuron 20(4): 633-47). After 3 days, survival is evaluated by measuring fluorescence after incubating the cells in the presence of calcein which becomes fluorescent in living cells.
# After 3 days in culture at 37° C., under 5% CO2 and in saturating humidity, up to 50% of the initially sown motoneurons survive in the medium supplemented with neurotrophic factors, while less than 15% of the motoneurons survive in a basal medium alone.
# The activity of the compounds to be tested was evaluated by their capability of preventing death of motoneurons when they are added to the neurobasal medium as compared with survival of motoneurons in a medium supplemented with neurotrophic factors.
# This survival rate is expressed by a number, the ratio. If the ratio is greater than 0, the effect of the compounds is positive on the survival of the motoneurons.
# [2] = system: motoneurons of the facial nucleus; test: axotomy of the facial nerve in newborn rats, count of motoneurons of the facial nucleus; assay type: in vivo, rat; conditions: axotomized newborn rats, treated orally, seven days after section
# [3] = Toxicological study in mice; assay type: in vivo; conditions: intra-peritoneal route, 30 mg/kg/day, daily administration up to 14 days
molecule,measurement,setting,value
"3,5-seco-4-nor-cholestan-5-one oxime-3-methyl alcohol [Compound 4]",Ratio (survival rate of the motoneurons),[1]; concentration 3 μM,0.5
same,increase of survival of the motoneurons of the facial nucleus,[2]; dose of 30 mg/kg,up to 30%
"3,5-seco-4-nor-cholestan-5-one-3-methyl ketone [Compound 13]",Ratio (survival rate of the motoneurons),[1]; concentration 3 μM,0.7
"CNC(=O)CCC1(C)C(=NO)CCC2C1CCC1(C)C(C(C)CCCC(C)C)CCC21 (stereo not shown) [Compound 1, 3,5-seco-4-nor-cholestan-5-one oxime-3-methyl-amide]",Ratio (survival rate of the motoneurons),[1]; concentration 3 μM,0.4
"CC(C)CCCC(C)C1CCC2C3CCC(=O)C(C)(CCC(C)(C)O)C3CCC12C (stereo not shown) [Compound 2, 3,5-seco-4-nor-cholestan-5-one-3-dimethyl alcohol]",Ratio (survival rate of the motoneurons),[1]; concentration 3 μM,0.5
"CC(C)CCCC(C)C1CCC2C3CCC(=NO)C(C)(CCC(C)(C)O)C3CCC12C (stereo not shown) [Compound 3, 3,5-seco-4-nor-cholestan-5-one oxime-3-dimethyl alcohol]",Ratio (survival rate of the motoneurons),[1]; concentration 3 μM,0.7
same,increase of survival of the motoneurons of the facial nucleus,[2]; dose of 10 mg/kg,up to 25%
same,toxicity,[3],did not show any significant toxicity
"CNCCCC1(C)C(=NO)CCC2C1CCC1(C)C(C(C)CCCC(C)C)CCC21 (stereo not shown) [Compound 5, 3,5-seco-4-nor-cholestan-5-one oxime-3-methyl-amine]",Ratio (survival rate of the motoneurons),[1]; concentration 3 μM,0.3
"CON=C1CC[C@H]2[C@@H]3CC[C@H]([C@H](C)CCCC(C)C)[C@@]3(C)CC[C@@H]2[C@@]1(C)CCCO [Compound 6, 3,5-seco-4-nor-cholestan-5-one methyloxime-3-ol]",Ratio (survival rate of the motoneurons),[1]; concentration 3 μM,0.4
"CC(C)CCCC(C)C1CCC2C3CCC(=NOCC(=O)O)C(C)(CCCO)C3CCC12C (stereo not shown) [Compound 7, 3,5-seco-4-nor-cholestan-5-one carboxymethyl-oxime-3-ol]",Ratio (survival rate of the motoneurons),[1]; concentration 3 μM,0.4
"CC(C)CCCC(C)C1CCC2C3CCC(=NO)C(C)(CCC(=O)O)C3CCC12C (stereo not shown) [Compound 8, 3,5-seco-4-nor-cholestan-5-one oxime-3-oic acid]",Ratio (survival rate of the motoneurons),[1]; concentration 3 μM,0.4
"CC(C)CCCC(C)C1CCC2C3CCC(O)C(C)(CCCO)C3CCC12C (stereo not shown) [Compound 9, 3,5-seco-4-nor-cholestane-3,5-diol]",Ratio (survival rate of the motoneurons),[1]; concentration 3 μM,0.4
"CC(C)CCCC(C)C1CCC2C3CCC(=O)C(C)(CCCO)C3CCC12C (stereo not shown) [Compound 10, 3,5-seco-4-nor-cholestan-5-one-3-ol]",Ratio (survival rate of the motoneurons),[1]; concentration 3 μM,0.6
"CC(C)CCC[C@@H](C)[C@H]1CC[C@H]2[C@@H]3CC/C(=N\O)[C@](C)(CCCO)[C@H]3CC[C@]12C [Compound 11, 3,5-seco-4-nor-cholestan-5-one oxime-3-ol]",Ratio (survival rate of the motoneurons),[1]; concentration 3 μM,0.8
same,increase of survival of the motoneurons of the facial nucleus,"[2]; dose between 3 and 30 mg/kg, as compared with non-sectioned nerve",up to 40%
same,toxicity,[3],did not show any significant toxicity
"CC(C)CCCC(C)C1CCC2C3CCC(=NO)C(C)(CCC=NO)C3CCC12C (stereo not shown) [Compound 12, 3,5-seco-4-nor-cholestan-5-one oxime-3-one oxime]",Ratio (survival rate of the motoneurons),[1]; concentration 3 μM,0.7
"CC(C)CCCC(C)C1CCC2C3CCC(=O)C(C)(CCC(=O)O)C3CCC12C (stereo not shown) [Compound 14, 3,5-seco-4-nor-cholestan-5-one-3-oic acid]",Ratio (survival rate of the motoneurons),[1]; concentration 10 μM,0.4

# Reference: patent US9045393B2, “Derivatives of 3.5-seco-4-norcholestane and use thereof” (TROPHOS, priority 2004, dated 2015)
